Assay [1] has as its target T1, casein kinase 2 (CK2α1) (Homo sapiens, UniProt P68400).
T1 construct: gene CSNK2A1; recombinant CK2α1
The assay can be described thus: cell-free ADP-Glo kinase assay with recombinant CK2α[…] and casein, […] ATP. The format is biochemical. Background: ADP-Glo turns the ADP formed in a reaction into a luminescent signal.

For assay [2], the target named is T1, casein kinase 2 (CK2α1). The assay can be described thus: cell-free ADP-Glo kinase assay, single concentration ([…]) positive control. The format is biochemical.

Read-outs that look alike come from different tables or passages of the source.

T1 sequence (P68400 whole entry): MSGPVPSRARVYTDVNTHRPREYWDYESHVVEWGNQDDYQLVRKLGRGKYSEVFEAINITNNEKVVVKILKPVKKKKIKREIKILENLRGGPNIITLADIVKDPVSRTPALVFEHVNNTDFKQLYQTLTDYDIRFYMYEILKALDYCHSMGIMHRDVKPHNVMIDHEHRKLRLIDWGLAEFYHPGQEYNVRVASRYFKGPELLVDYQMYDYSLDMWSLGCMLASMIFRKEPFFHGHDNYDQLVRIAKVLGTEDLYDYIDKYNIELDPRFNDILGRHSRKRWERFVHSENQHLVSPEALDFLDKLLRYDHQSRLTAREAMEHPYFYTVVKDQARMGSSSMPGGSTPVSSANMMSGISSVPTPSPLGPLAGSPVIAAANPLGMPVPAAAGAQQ

The IC50 is the concentration needed to halve the response being measured. Regarding `Cc1cc(O)cc2oc(=O)c3c(O)cc(O)cc3c12` [AOH, alternariol], the IC50 on casein kinase 2 (CK2α1) [1] is 707 nM.
For orientation: inhibition means the share of the control response that was lost under treatment. Higher therefore signals a strong effect. Turning to `O=c1c(O)c(-c2ccc(O)c(O)c2)oc2cc(O)cc(O)c12` [QUE, quercetin], the inhibition at 10 µM against casein kinase 2 (CK2α1) [2] was 94%.
Turning to `O=C1CC[C@]2(O)c3c(ccc(O)c31)-c1ccc(O)c3c1C2[C@H]1O[C@H]1C3=O` (stereo partly drawn) [ATX-II, altertoxin II], the IC50 at casein kinase 2 (CK2α1) [1] (read-out: IC50) is 5100 nM.
